# From patent US20040253262A1, “Biological compositions and methods for treatment of lymphoma” (priority 2003, published 2004)
# Columns and labels:
# spontaneous lymphoma = experiment: Inbred PBA mouse model of lymphoma, survival after treatment; assay type: in vivo; details: 36 at start
# Description: A model based on inbred PBA mice which manifest a high incidence of tumor was used (Bailey et al., 1970, J Natl. Cancer Inst. 45(1):59-73). Mice six to eight weeks old were treated by the method as described in Shiyan Dongwu Yu Zhongliu Yanjiu (Experimental Animal & Tumor Research), April 2000, by Chinese Medical Technology Publisher.
# In the first series, the mice in group AY received 0.3 ml of the oral composition of the invention per day. The mice in group NY received 0.3 ml per day of a composition comprising at a similar concentration the same strain of yeast which had not been activated and conditioned. The mice in group CTX received subcutaneous injection of cyclophosphamide at a dose of 30 mg per kg body weight per day. […] The experiment was carried out over a 30-day treatment period.
# In the second series, the mice in group 2AY received 0.5 ml of the oral composition of the invention per day. The mice in group 2NY received 0.5 ml per day of a composition comprising the same strain of yeast which had not been activated and conditioned at a similar concentration. The mice in group 2CTX received subcutaneous injection of cyclophosphamide at a dose of 45 mg per kg body weight per day. […] The experiment was carried out over a 60-day treatment period.
# After the 30-day or 60-day treatment, the mice were fed a normal diet and allowed to live under the same environment. The health and survival of the mice were observed and compared over 180 days.
# Each group consisted of 36 mice at the beginning of the experiment (3 repeats). The total number of surviving mice in each group were counted at the end of every month up to 6 months after treatment stopped.
# Burkitt's lymphoma cells = experiment: Athymic nude mouse model with transplanted Burkitt's lymphoma cells, survival after treatment; assay type: in vivo; details: 36 at start
# Description: A model based on transplantation of Burkitt's lymphoma cell in athymic nude mice was used (Gurtsevitch et al., 1988, Int J Cancer 15;41(1):87-95). The model was set up as described in Shiyan Dongwu Yu Zhongliu Yanjiu (Experimental Animal & Tumor Research), April 2000, by Chinese Medical Technology Publisher. Essentially, seven week old mice were injected intravenously each with 1×10^6 Burkitt's lymphoma cells.
# Twenty-one days after the injection of lymphoma cells, the mice were divided into two series of five groups: one series received treatment for 30 days, the other series received treatment for 60 days. […] The mice in group A received saline orally. The mice in group B received subcutaneous injection of cyclophosphamide at a dose of 30 mg per kg body weight per day. Group C received subcutaneous injection of cyclophosphamide at a dose of 45 mg per kg body weight per day. The mice in group D received 0.3 ml of the oral composition per day. Group E received 0.5 ml of the oral composition per day.
# After the 30-day or 60-day treatment, the mice were fed a normal diet and allowed to live under the same environment. The health and survival of the nude mice were observed and compared over 360 days.
# Each group consisted of 36 mice at the beginning of the experiment (3 repeats). The total number of surviving mice in each group were counted at the end of every month up to 12 months after treatment stopped.
smiles,measurement,setting,value
O=P1(N(CCCl)CCCl)NCCCO1 (stereo not drawn) [cyclophosphamide],total number of surviving mice,"spontaneous lymphoma; 30 mg/kg per day per table head (45 mg/kg elsewhere in the source) s.c., 60-day treatment (group 2CTX), day 0 after treatment period",36
same,total number of surviving mice,"spontaneous lymphoma; 30 mg/kg per day per table head (45 mg/kg elsewhere in the source) s.c., 60-day treatment (group 2CTX), day 30 after treatment period",36
same,total number of surviving mice,"spontaneous lymphoma; 30 mg/kg per day per table head (45 mg/kg elsewhere in the source) s.c., 60-day treatment (group 2CTX), day 60 after treatment period",29
same,total number of surviving mice,"spontaneous lymphoma; 30 mg/kg per day per table head (45 mg/kg elsewhere in the source) s.c., 60-day treatment (group 2CTX), day 90 after treatment period",21
same,total number of surviving mice,"spontaneous lymphoma; 30 mg/kg per day per table head (45 mg/kg elsewhere in the source) s.c., 60-day treatment (group 2CTX), day 120 after treatment period",14
same,total number of surviving mice,"spontaneous lymphoma; 30 mg/kg per day per table head (45 mg/kg elsewhere in the source) s.c., 60-day treatment (group 2CTX), day 150 after treatment period",14
same,total number of surviving mice,"spontaneous lymphoma; 30 mg/kg per day per table head (45 mg/kg elsewhere in the source) s.c., 60-day treatment (group 2CTX), day 180 after treatment period",8
same,total number of surviving mice,"spontaneous lymphoma; 30 mg/kg per day s.c., 30-day treatment, day 0 after treatment period",36
same,total number of surviving mice,"spontaneous lymphoma; 30 mg/kg per day s.c., 30-day treatment, day 30 after treatment period",33
same,total number of surviving mice,"spontaneous lymphoma; 30 mg/kg per day s.c., 30-day treatment, day 60 after treatment period",27
same,total number of surviving mice,"spontaneous lymphoma; 30 mg/kg per day s.c., 30-day treatment, day 90 after treatment period",19
same,total number of surviving mice,"spontaneous lymphoma; 30 mg/kg per day s.c., 30-day treatment, day 120 after treatment period",17
same,total number of surviving mice,"spontaneous lymphoma; 30 mg/kg per day s.c., 30-day treatment, day 150 after treatment period",0
same,total number of surviving mice,"spontaneous lymphoma; 30 mg/kg per day s.c., 30-day treatment, day 180 after treatment period",0
same,total number of surviving mice,"Burkitt's lymphoma cells; 30 mg/kg per day s.c. (group B), 30-day treatment, day 0 after treatment period",36
same,total number of surviving mice,"Burkitt's lymphoma cells; 30 mg/kg per day s.c. (group B), 30-day treatment, day 30 after treatment period",33
same,total number of surviving mice,"Burkitt's lymphoma cells; 30 mg/kg per day s.c. (group B), 30-day treatment, day 60 after treatment period",24
same,total number of surviving mice,"Burkitt's lymphoma cells; 30 mg/kg per day s.c. (group B), 30-day treatment, day 90 after treatment period",14
same,total number of surviving mice,"Burkitt's lymphoma cells; 30 mg/kg per day s.c. (group B), 30-day treatment, day 120 after treatment period",5
same,total number of surviving mice,"Burkitt's lymphoma cells; 30 mg/kg per day s.c. (group B), 30-day treatment, day 150 after treatment period",3
same,total number of surviving mice,"Burkitt's lymphoma cells; 30 mg/kg per day s.c. (group B), 30-day treatment, day 180 after treatment period",1
same,total number of surviving mice,"Burkitt's lymphoma cells; 30 mg/kg per day s.c. (group B), 30-day treatment, day 210 after treatment period",0
same,total number of surviving mice,"Burkitt's lymphoma cells; 30 mg/kg per day s.c. (group B), 30-day treatment, day 240 after treatment period",0
same,total number of surviving mice,"Burkitt's lymphoma cells; 30 mg/kg per day s.c. (group B), 30-day treatment, day 270 after treatment period",0
same,total number of surviving mice,"Burkitt's lymphoma cells; 30 mg/kg per day s.c. (group B), 30-day treatment, day 300 after treatment period",0
same,total number of surviving mice,"Burkitt's lymphoma cells; 30 mg/kg per day s.c. (group B), 30-day treatment, day 330 after treatment period",0
same,total number of surviving mice,"Burkitt's lymphoma cells; 30 mg/kg per day s.c. (group B), 30-day treatment, day 360 after treatment period",0
same,total number of surviving mice,"Burkitt's lymphoma cells; 30 mg/kg per day s.c. (group B), 60-day treatment, day 0 after treatment period",35
same,total number of surviving mice,"Burkitt's lymphoma cells; 30 mg/kg per day s.c. (group B), 60-day treatment, day 30 after treatment period",35
same,total number of surviving mice,"Burkitt's lymphoma cells; 30 mg/kg per day s.c. (group B), 60-day treatment, day 60 after treatment period",33
same,total number of surviving mice,"Burkitt's lymphoma cells; 30 mg/kg per day s.c. (group B), 60-day treatment, day 90 after treatment period",24
same,total number of surviving mice,"Burkitt's lymphoma cells; 30 mg/kg per day s.c. (group B), 60-day treatment, day 120 after treatment period",19
same,total number of surviving mice,"Burkitt's lymphoma cells; 30 mg/kg per day s.c. (group B), 60-day treatment, day 150 after treatment period",9
same,total number of surviving mice,"Burkitt's lymphoma cells; 30 mg/kg per day s.c. (group B), 60-day treatment, day 180 after treatment period",5
same,total number of surviving mice,"Burkitt's lymphoma cells; 30 mg/kg per day s.c. (group B), 60-day treatment, day 210 after treatment period",2
same,total number of surviving mice,"Burkitt's lymphoma cells; 30 mg/kg per day s.c. (group B), 60-day treatment, day 240 after treatment period",0
same,total number of surviving mice,"Burkitt's lymphoma cells; 30 mg/kg per day s.c. (group B), 60-day treatment, day 270 after treatment period",0
same,total number of surviving mice,"Burkitt's lymphoma cells; 30 mg/kg per day s.c. (group B), 60-day treatment, day 300 after treatment period",0
same,total number of surviving mice,"Burkitt's lymphoma cells; 30 mg/kg per day s.c. (group B), 60-day treatment, day 330 after treatment period",0
same,total number of surviving mice,"Burkitt's lymphoma cells; 30 mg/kg per day s.c. (group B), 60-day treatment, day 360 after treatment period",0
same,total number of surviving mice,"Burkitt's lymphoma cells; 45 mg/kg per day s.c. (group C), 30-day treatment, day 0 after treatment period",35
same,total number of surviving mice,"Burkitt's lymphoma cells; 45 mg/kg per day s.c. (group C), 30-day treatment, day 30 after treatment period",35
same,total number of surviving mice,"Burkitt's lymphoma cells; 45 mg/kg per day s.c. (group C), 30-day treatment, day 60 after treatment period",27
same,total number of surviving mice,"Burkitt's lymphoma cells; 45 mg/kg per day s.c. (group C), 30-day treatment, day 90 after treatment period",21
same,total number of surviving mice,"Burkitt's lymphoma cells; 45 mg/kg per day s.c. (group C), 30-day treatment, day 120 after treatment period",17
same,total number of surviving mice,"Burkitt's lymphoma cells; 45 mg/kg per day s.c. (group C), 30-day treatment, day 150 after treatment period",11
same,total number of surviving mice,"Burkitt's lymphoma cells; 45 mg/kg per day s.c. (group C), 30-day treatment, day 180 after treatment period",4
same,total number of surviving mice,"Burkitt's lymphoma cells; 45 mg/kg per day s.c. (group C), 30-day treatment, day 210 after treatment period",2
same,total number of surviving mice,"Burkitt's lymphoma cells; 45 mg/kg per day s.c. (group C), 30-day treatment, day 240 after treatment period",1
same,total number of surviving mice,"Burkitt's lymphoma cells; 45 mg/kg per day s.c. (group C), 30-day treatment, day 270 after treatment period",0
same,total number of surviving mice,"Burkitt's lymphoma cells; 45 mg/kg per day s.c. (group C), 30-day treatment, day 300 after treatment period",0
same,total number of surviving mice,"Burkitt's lymphoma cells; 45 mg/kg per day s.c. (group C), 30-day treatment, day 330 after treatment period",0
same,total number of surviving mice,"Burkitt's lymphoma cells; 45 mg/kg per day s.c. (group C), 30-day treatment, day 360 after treatment period",0
same,total number of surviving mice,"Burkitt's lymphoma cells; 45 mg/kg per day s.c. (group C), 60-day treatment, day 0 after treatment period",34
same,total number of surviving mice,"Burkitt's lymphoma cells; 45 mg/kg per day s.c. (group C), 60-day treatment, day 30 after treatment period",34
same,total number of surviving mice,"Burkitt's lymphoma cells; 45 mg/kg per day s.c. (group C), 60-day treatment, day 60 after treatment period",34
same,total number of surviving mice,"Burkitt's lymphoma cells; 45 mg/kg per day s.c. (group C), 60-day treatment, day 90 after treatment period",27
same,total number of surviving mice,"Burkitt's lymphoma cells; 45 mg/kg per day s.c. (group C), 60-day treatment, day 120 after treatment period",19
same,total number of surviving mice,"Burkitt's lymphoma cells; 45 mg/kg per day s.c. (group C), 60-day treatment, day 150 after treatment period",12
same,total number of surviving mice,"Burkitt's lymphoma cells; 45 mg/kg per day s.c. (group C), 60-day treatment, day 180 after treatment period",7
same,total number of surviving mice,"Burkitt's lymphoma cells; 45 mg/kg per day s.c. (group C), 60-day treatment, day 210 after treatment period",3
same,total number of surviving mice,"Burkitt's lymphoma cells; 45 mg/kg per day s.c. (group C), 60-day treatment, day 240 after treatment period",0
same,total number of surviving mice,"Burkitt's lymphoma cells; 45 mg/kg per day s.c. (group C), 60-day treatment, day 270 after treatment period",0
same,total number of surviving mice,"Burkitt's lymphoma cells; 45 mg/kg per day s.c. (group C), 60-day treatment, day 300 after treatment period",0
same,total number of surviving mice,"Burkitt's lymphoma cells; 45 mg/kg per day s.c. (group C), 60-day treatment, day 330 after treatment period",0
same,total number of surviving mice,"Burkitt's lymphoma cells; 45 mg/kg per day s.c. (group C), 60-day treatment, day 360 after treatment period",0
